The source of these data is PMC7099625, “Exploration of thiaheterocyclic hHDAC6 inhibitors as potential antiplasmodial agents” (Future Medicinal Chemistry, 2017).

Structures are written as SMILES. Where two headings read alike, the source gives them in different places.

One assay concerns hHDAC6. Also noted: method as in PMID 23538448, PMID 25994553, PMID 26822143, PMID 27717044. Conditions: hHDAC6 inhibition, previously described; read-out: IC50 HDAC6; cited from earlier work.
For another assay, the system named is P. falciparum (Dd2). The experiment in a line: Antiplasmodial parasite lactate dehydrogenase assay, chloroquine-resistant strain Dd2. It is filed as cell-based, Plasmodium falciparum. Conditions: read-out: IC50 Dd2. As to the method:
(§1) Continuous in vitro cultures of asexual erythrocyte stages of P. falciparum were maintained using a modified method of Trager and Jensen. Quantitative assessment of antiplasmodial activity in vitro was determined via the parasite lactate dehydrogenase assay using a modified method described by Makler. The test samples were prepared to a 20 mg/ml stock solution in 100% DMSO. Stock solutions were stored at -20°C. Further dilutions were prepared in complete medium on the day of the experiment. CQ and artesunate were used as the reference drugs. A full dose–response was performed to determine the concentration inhibiting 50% of parasite growth (IC50 value). Test samples were tested at a starting concentration of 100 μg/ml, which was then serially diluted twofold in complete medium to give 10 concentrations; with the lowest concentration being 0.2 μg/ml. The same dilution technique was used for all samples. References were tested at a starting concentration of 1 μg/ml.
(§2) The antiplasmodial activity of this set of structures was first determined through a modified parasite lactate dehydrogenase assay against a CQ-sensitive (CQS) strain of P. falciparum (NF54). […] Finally, a selectivity index (SI = IC50 CHO/IC50 NF54) and a resistance index (RI = IC50 Dd2/IC50 NF54) was calculated to be able to easily compare the therapeutic window (active concentration vs toxic concentration) and sensitivity toward resistance developing.

In assay [1] the test system is Chinese Hamster Ovary (CHO) cells. The experiment in a line: MTT in vitro cytotoxicity assay. It is filed as cell-based. Conditions: triplicate on one occasion. Here is the method: Test samples were screened for in vitro cytotoxicity against a mammalian cell-line, Chinese Hamster Ovary (CHO), using the 3-(4,5-dimethylthiazol-2-yl)-2,5-diphenyltetrazoliumbromide (MTT)-assay. The MTT-assay is used as a colorimetric assay for cellular growth and survival, and compares well with other available assays. The tetrazolium salt MTT was used to measure all growth and chemosensitivity. The test samples were tested in triplicate on one occasion. The same stock solutions prepared for antiplasmodial evaluation were used for cytotoxicity testing. Test compounds were stored at -20°C until use. Dilutions were prepared on the day of the experiment. Emetine was used as the reference drug in all experiments. The starting concentration was 100 μg/ml, which was serially diluted in complete medium with tenfold dilutions to give six concentrations, the lowest being 0.001 μg/ml. […] The IC50 values were obtained from full dose–response curves, using a nonlinear dose–response curve fitting analysis via GraphPad Prism v.4 software. […]

For another assay, the system named is P. falciparum (NF54). The experiment in a line: Antiplasmodial parasite lactate dehydrogenase assay, chloroquine-sensitive strain NF54. It is filed as cell-based, Plasmodium falciparum. Particulars: read-out: IC50 NF54. As to the method: as §1, §2
The mark [2] stands for this setting: chloroquine-resistant (CQR) P. falciparum strain Dd2, asexual erythrocyte stages, pLDH assay.
The mark [3] stands for this setting: chloroquine-sensitive (CQS) P. falciparum strain NF54, asexual erythrocyte stages, pLDH assay.

For `O=C(NO)c1ccc(Cn2c3c(c4ccccc42)C[S+]([O-])CC3)cc1` (racemic) [Compound 1j], the IC50 in the assay on hHDAC6 is 14 nM; in the assay on P. falciparum (Dd2) (setting [2]), 1300 nM; in assay [1], over 282000 nM; with P. falciparum (NF54) (setting [3]), 1280 nM.
Turning to `O=C(NO)c1ccc(Cn2c3c(c4cc(F)ccc42)C[S+]([O-])CC3)cc1` (racemic) [Compound 1k], the IC50 is 800 nM with P. falciparum (Dd2) (setting [2]) and over 269000 nM in assay [1].
Turning to `O=C(NO)c1ccc(CN2c3cc(Cl)ccc3SCC3CCCC32)cc1` (racemic) [Compound 3b], the IC50 in the assay on hHDAC6 was 650 nM; with P. falciparum (Dd2) (setting [2]) it was over 2480 nM; in assay [1], 41400 nM; in the assay with P. falciparum (NF54) (setting [3]), over 2480 nM.
Take `O=C(NO)c1ccc(CN2c3cc(C(F)(F)F)ccc3SCC3CCCC32)cc1` (racemic) [Compound 3c]: the IC50 in the assay with hHDAC6 was 200 nM; in the assay on P. falciparum (Dd2) (setting [2]), over 2290 nM; in assay [1], 61500 nM; with P. falciparum (NF54) (setting [3]), 1530 nM.
Regarding `O=C(NO)c1ccc(CN2c3cc(Cl)ccc3S(=O)(=O)CC3CCCC32)cc1` (racemic) [Compound 3e], the IC50 in the assay with hHDAC6 is 68 nM; in assay [1], 35400 nM.
As for `O=C(NO)c1ccc(CN2c3cc(C(F)(F)F)ccc3S(=O)(=O)CC3CCCC32)cc1` (racemic) [Compound 3f], the IC50 stood at 700 nM with P. falciparum (Dd2) (setting [2]), 56800 nM in assay [1] and 870 nM with P. falciparum (NF54) (setting [3]).
For the compound `O=C(NO)c1ccc(CN2c3cc(Cl)ccc3SCC3CCCC32)cc1` (racemic) [Compound 3i], the IC50 with hHDAC6 is 160 nM; in the assay with P. falciparum (Dd2) (setting [2]), 1570 nM; in assay [1], 50900 nM; in the assay on P. falciparum (NF54) (setting [3]) it was over 2480 nM.
As for `C[C@H]1[C@H](OC(=O)CCC(=O)O)O[C@@H]2O[C@@]3(C)CC[C@H]4[C@H](C)CC[C@@H]1[C@@]24OO3` [Artesunate, artesunate, reference compound], the IC50 in the assay on P. falciparum (Dd2) (Plasmodium falciparum, chloroquine-resistant (CQR) P. falciparum strain Dd2, asexual erythrocyte stages, pLDH assay) was 16 nM; with P. falciparum (NF54) (Plasmodium falciparum, chloroquine-sensitive (CQS) P. falciparum strain NF54, asexual erythrocyte stages, pLDH assay), under 10 nM.
In the case of `CCN(CC)CCCC(C)Nc1ccnc2cc(Cl)ccc12` (stereo not shown) [Chloroquine, chloroquine, reference compound], the concentration for half-maximal inhibition (IC50) in the assay with P. falciparum (Dd2) (Plasmodium falciparum, DD2, Erythrocyte) was determined as 175 nM; in the assay on P. falciparum (NF54) (Plasmodium falciparum, NF54, Erythrocyte) it was 10 nM.
As for `O=C(NO)c1ccc(Cn2c3c(c4ccccc42)CSCC3)cc1` [Compound 1a], the 50% inhibitory concentration (IC50) was 15 nM with hHDAC6 and 37500 nM with P. falciparum (NF54) (setting [3]).
Turning to `COc1cc(C(=O)NO)ccc1Cn1c2c(c3ccccc31)CSCC2` [Compound 1b], the IC50 with P. falciparum (NF54) (setting [3]) is 14000 nM.
Consider `O=C(NO)c1ccc(Cn2c3c(c4cc(F)ccc42)CSCC3)cc1` [Compound 1c], for which the IC50 in the assay on hHDAC6 is 22 nM; with P. falciparum (Dd2) (setting [2]), 3100 nM; in assay [1], 105000 nM; in the assay on P. falciparum (NF54) (setting [3]), 2200 nM.
Turning to `COc1cc(C(=O)NO)ccc1Cn1c2c(c3cc(F)ccc31)CSCC2` [Compound 1d], the IC50 in the assay with P. falciparum (NF54) (setting [3]) is 23200 nM.
For the compound `O=C(NO)c1ccc(Cn2c3c(c4ccccc42)CS(=O)(=O)CC3)cc1` [Compound 1e], the results for the IC50 with hHDAC6 and in the assay on P. falciparum (NF54) (setting [3]) were 2 nM and 10800 nM, respectively.
Regarding `COc1cc(C(=O)NO)ccc1Cn1c2c(c3ccccc31)CS(=O)(=O)CC2` [Compound 1f], the half-maximal inhibitory concentration (IC50) with hHDAC6 was 2000 nM; in the assay on P. falciparum (NF54) (setting [3]) it was 21000 nM.
For `O=C(NO)c1ccc(Cn2c3c(c4cc(F)ccc42)CS(=O)(=O)CC3)cc1` [Compound 1g], the IC50 in the assay on hHDAC6 is 4 nM; in the assay with P. falciparum (NF54) (setting [3]) it was 15800 nM.
Turning to `COc1cc(C(=O)NO)ccc1Cn1c2c(c3cc(F)ccc31)CS(=O)(=O)CC2` [Compound 1h], the values for the IC50 in the assay with hHDAC6 and in the assay with P. falciparum (NF54) (setting [3]) were 1300 nM and 32700 nM, respectively.
For the compound `O=C(NO)c1ccc(Cn2c3c(c4cc(Br)ccc42)CS(=O)(=O)CC3)cc1` [Compound 1i], in assay [1], the IC50 was 109000 nM.
Turning to `O=C(NO)c1cccc(Cn2c3c(c4ccccc42)CSCC3)c1` [Compound 1n], the figures for the IC50 (with P. falciparum (Dd2) (setting [2]); in assay [1]; with P. falciparum (NF54) (setting [3])) were 2180 nM, over 295000 nM and 1480 nM, respectively.
For the compound `O=C(NO)c1cccc(Cn2c3c(c4cc(F)ccc42)CSCC3)c1` [Compound 1o], the IC50 in the assay with P. falciparum (Dd2) (setting [2]) was found to be 1440 nM; in assay [1] it was 48100 nM; with P. falciparum (NF54) (setting [3]) it was 1320 nM.
On to `O=C(NO)c1cccc(Cn2c3c(c4ccccc42)CS(=O)(=O)CC3)c1` [Compound 1p], for which the half-maximal inhibitory concentration (IC50) with P. falciparum (NF54) (setting [3]) amounted to 5450 nM.
On the same count and under the same terms, the value for `O=C(NO)c1cccc(Cn2c3c(c4cc(F)ccc42)CS(=O)(=O)CC3)c1` [Compound 1q] was 7840 nM.
Same read-out and setting: as for `O=C(NO)c1cccc(Cn2c3c(c4cc(-c5ccccc5)ccc42)CS(=O)(=O)CC3)c1` [Compound 1r], the figure is 8130 nM.
Consider `O=C(NO)c1ccc(NCc2csc3ccccc23)cc1` [Compound 2a], for which the IC50 with hHDAC6 was 14 nM; in the assay with P. falciparum (Dd2) (setting [2]), 2130 nM; in assay [1] it was 12700 nM; in the assay on P. falciparum (NF54) (setting [3]), 1600 nM.
In the case of `O=C(NO)c1ccc(N(Cc2ccccc2)Cc2csc3ccccc23)cc1` [Compound 2b], in the assay on P. falciparum (NF54) (setting [3]), the IC50 was 32400 nM.
Consider `O=C(NO)c1ccc(NCc2csc3ccc(Br)cc23)cc1` [Compound 2c], for which the concentration for half-maximal inhibition (IC50) is 37 nM in the assay on hHDAC6, 2400 nM in the assay with P. falciparum (Dd2) (setting [2]), 31000 nM in assay [1] and 1020 nM in the assay with P. falciparum (NF54) (setting [3]).
As for `O=C(NO)c1ccc(N(Cc2ccccc2)Cc2csc3ccc(Br)cc23)cc1` [Compound 2d], in the assay on P. falciparum (NF54) (setting [3]), the IC50 came out at 17800 nM.
Same read-out and setting: the value for `O=C(NO)c1ccc(NCc2csc3ccc(-c4ccccc4)cc23)cc1` [Compound 2e] was 5070 nM; that for `O=C(NO)c1ccc(N(Cc2ccccc2)Cc2csc3ccc(-c4ccccc4)cc23)cc1` [Compound 2f] was 5750 nM.
For `O=C(NO)c1ccc(NCc2csc3cc(Br)ccc23)cc1` [Compound 2g], the IC50 in the assay on hHDAC6 is 64 nM; with P. falciparum (Dd2) (setting [2]), 1580 nM; in assay [1], 46100 nM; in the assay with P. falciparum (NF54) (setting [3]), 1300 nM.
On to `O=C(NO)c1ccc(N(Cc2ccccc2)Cc2csc3cc(Br)ccc23)cc1` [Compound 2h], for which the IC50 with P. falciparum (NF54) (setting [3]) turned out to be 8450 nM.
With `O=C(NO)c1ccc(NCc2csc3cc(-c4ccccc4)ccc23)cc1` [Compound 2i], the IC50 in the assay on P. falciparum (Dd2) (setting [2]) was 1140 nM; in assay [1] it was 31200 nM; in the assay on P. falciparum (NF54) (setting [3]), 3340 nM.
With `O=C(NO)c1ccc(N(Cc2ccccc2)Cc2csc3cc(-c4ccccc4)ccc23)cc1` [Compound 2j], in the assay with P. falciparum (NF54) (setting [3]), the IC50 came out at 5020 nM.
On the same count and under the same terms, the value for `Cc1cc(C(=O)NO)ccc1NCc1csc2ccccc12` [Compound 2k] was 36800 nM.
As to `O=C(NO)c1ccc(CN2c3ccccc3SCC3CCCC32)cc1` (stereo not shown) [Compound 3a], the IC50 in the assay with hHDAC6 is 36 nM; with P. falciparum (Dd2) (setting [2]) it was over 2700 nM; in assay [1], 104000 nM; in the assay on P. falciparum (NF54) (setting [3]), 1590 nM.
As to `O=C(NO)c1ccc(CN2c3ccccc3S(=O)(=O)CC3CCCC32)cc1` (stereo not shown) [Compound 3d], the values for the IC50 (with P. falciparum (Dd2) (setting [2]); in assay [1]) were 940 nM and 108000 nM, respectively.
For `O=C(NO)c1ccc(CN2c3ccccc3[S+]([O-])CC3CCCC32)cc1` (stereo not shown) [Compound 3g], the IC50 is 6 nM in the assay with hHDAC6, over 2600 nM in the assay on P. falciparum (Dd2) (setting [2]), 173000 nM in assay [1] and 1250 nM with P. falciparum (NF54) (setting [3]).
With `O=C(NO)c1ccc(CN2c3ccccc3SCC3CCCCC32)cc1` (stereo not shown) [Compound 3h], the IC50 in the assay with hHDAC6 was 33 nM; in the assay on P. falciparum (Dd2) (setting [2]), over 2610 nM; in assay [1], 87000 nM; in the assay with P. falciparum (NF54) (setting [3]), over 2610 nM.
As for `O=C(NO)c1ccc(CN2c3ccccc3SCC3CCCCC32)cc1` (stereo not shown) [Compound 3j], the IC50 is 92 nM in the assay on hHDAC6, over 2610 nM in the assay on P. falciparum (Dd2) (setting [2]), 61700 nM in assay [1] and over 2610 nM with P. falciparum (NF54) (setting [3]).
Take `CC[C@H]1CN2CCc3cc(OC)c(OC)cc3[C@@H]2C[C@@H]1C[C@H]1NCCc2cc(OC)c(OC)cc21` [Emetine, reference compound]: the IC50 in assay [1] (Cricetulus griseus) was 112 nM.

Broadly, the IC50 is the concentration that inhibits the measured activity by half.
